ChEMBL document CHEMBL2073887, “Hepatobiliary transport kinetics of HSR-903, a new quinolone antibacterial agent” (Drug Metab Dispos, 1998)

How the values were obtained:
[1] = target: T1, ATP-binding cassette sub-family C member 2 (Rattus norvegicus, UniProt Q63120); experiment: TP_TRANSPORTER: biliary excretion in EHBR rat; type: functional, organism-based, Bile; conditions: in vivo
[2] = target: T1, ATP-binding cassette sub-family C member 2; experiment: TP_TRANSPORTER: biliary excretion in SD rat; type: functional, organism-based, Sprague-Dawley, Bile; conditions: in vivo

T1 sequence (Q63120 whole entry): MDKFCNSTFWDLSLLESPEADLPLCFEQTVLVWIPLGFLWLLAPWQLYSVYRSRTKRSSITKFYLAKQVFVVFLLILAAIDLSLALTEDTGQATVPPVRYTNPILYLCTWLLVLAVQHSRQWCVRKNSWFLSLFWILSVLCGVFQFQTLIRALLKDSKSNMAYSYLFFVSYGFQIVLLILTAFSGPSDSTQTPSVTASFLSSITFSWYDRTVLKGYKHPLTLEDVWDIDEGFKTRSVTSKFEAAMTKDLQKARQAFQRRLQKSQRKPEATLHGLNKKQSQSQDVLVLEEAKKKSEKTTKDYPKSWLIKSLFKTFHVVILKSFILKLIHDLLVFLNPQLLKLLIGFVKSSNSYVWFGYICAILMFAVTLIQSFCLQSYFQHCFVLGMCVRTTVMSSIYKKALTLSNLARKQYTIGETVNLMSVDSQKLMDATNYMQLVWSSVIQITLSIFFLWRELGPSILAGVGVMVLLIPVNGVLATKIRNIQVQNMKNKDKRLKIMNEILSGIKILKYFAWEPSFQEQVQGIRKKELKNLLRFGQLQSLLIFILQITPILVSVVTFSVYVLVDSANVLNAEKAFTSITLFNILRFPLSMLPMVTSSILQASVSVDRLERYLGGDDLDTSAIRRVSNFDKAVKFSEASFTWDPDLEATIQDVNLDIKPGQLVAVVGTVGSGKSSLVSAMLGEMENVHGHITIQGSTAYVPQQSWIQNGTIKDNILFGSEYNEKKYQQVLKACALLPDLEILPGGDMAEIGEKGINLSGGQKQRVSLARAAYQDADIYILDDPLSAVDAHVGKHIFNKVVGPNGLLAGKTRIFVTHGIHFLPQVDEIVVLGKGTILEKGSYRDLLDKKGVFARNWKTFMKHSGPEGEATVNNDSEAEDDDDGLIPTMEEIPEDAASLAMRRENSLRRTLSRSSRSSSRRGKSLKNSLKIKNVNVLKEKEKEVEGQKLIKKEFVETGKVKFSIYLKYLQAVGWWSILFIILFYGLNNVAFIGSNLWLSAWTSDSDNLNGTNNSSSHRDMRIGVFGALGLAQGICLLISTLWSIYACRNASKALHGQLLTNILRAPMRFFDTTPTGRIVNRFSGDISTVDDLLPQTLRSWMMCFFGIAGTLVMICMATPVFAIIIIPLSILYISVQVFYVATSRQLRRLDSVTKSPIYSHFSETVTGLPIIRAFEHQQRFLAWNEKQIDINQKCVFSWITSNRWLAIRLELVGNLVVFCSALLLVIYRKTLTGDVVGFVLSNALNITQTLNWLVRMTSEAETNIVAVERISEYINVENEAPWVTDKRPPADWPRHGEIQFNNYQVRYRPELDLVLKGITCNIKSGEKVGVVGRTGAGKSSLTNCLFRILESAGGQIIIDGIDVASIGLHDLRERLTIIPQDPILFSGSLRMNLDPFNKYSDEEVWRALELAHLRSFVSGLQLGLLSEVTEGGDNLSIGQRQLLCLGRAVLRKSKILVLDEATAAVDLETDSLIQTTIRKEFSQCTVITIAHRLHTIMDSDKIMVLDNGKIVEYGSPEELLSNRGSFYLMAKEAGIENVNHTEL

## CS(=O)(=O)O.Cc1c(N2C[C@@H](N)C3(CC3)C2)c(F)c(N)c2c(=O)c(C(=O)O)cn(C3CC3)c12
[1]
  Activity: substrate [+]
[2]
  Activity: substrate [+]
